Measured values as given in patent publication US20230381774A1, “MICROFLUDIC LAB-ON-CHIP DEVICE, MATRIX, SMALL MOLECULES AND THREE-DIMENSIONAL SPHEROIDS FOR CELL REPROGRAMMING” (The Regents of the University of California, priority 2022, published 2023).
Entries after “also recorded” stand apart in the source; their conditions may differ.

Experiments:
Type in all cases: cell-based, mouse
calponin and αSMA = experiment: Mesenchymal marker expression (immunostaining, qRT-PCR, Western blot)
Description: (§1) For immunostaining, cells were fixed with 4% paraformaldehyde (Electron Microscopy Sciences), permeabilized with 0.5% Triton-X-100 (Sigma), and blocked with 5% donkey serum (Jackson Immunoresearch) in phosphate buffered saline (PBS). For actin-cytoskeleton staining, samples were incubated with fluorescein isothiocyanate-conjugated phalloidin (Invitrogen) for 1 hour. Primary antibodies were incubated for 1 hour at room temperature or overnight at 4° C., followed by 1-hour incubation with Alexa 488 and/or Alexa 546-labeled secondary antibodies (Molecular Probes). Nuclei were stained with 4,6-diamino-2-phenylindole (DAPI) (Invitrogen).
RNA was isolated from samples using Trizol® (Ambion) according to the manufacturer's instructions. For cDNA synthesis, 500 ng of RNA was reverse transcribed using Maxima First Strand cDNA Synthesis Kit (ThermoFisher Scientific). Template DNA was amplified using Maxima SYBR Green/Fluorescein qPCR Master Mix (ThermoFisher Scientific) on a CFX qPCR machine (Bio-Rad). qRT-PCR data were analyzed using CFX Manager 3.1 (Bio-Rad) and gene expression levels were normalized to 18S.
Fibroblasts were lysed and collected in Laemmli buffer ([…] Tris-HCl, 10% glycerol, 2% SDS, 5% 2-mercaptoethanol, 0.002% bromophenol blue) containing RIPA buffer (50 mM Tris-HCl, 150 mM NaCl, 1% Triton-X-100, 0.1% SDS, 10 mM NaF, 0.5% sodium deoxycholate) along with protease inhibitors (PMSF, Na3VO4 and Leupeptin) on ice. Protein lysates were centrifuged to pellet cell debris, and the supernatant was collected and used in further analysis. Protein samples were run using SDS-PAGE and transferred to polyvinylidene fluoride (PVDF) membranes. Membranes were blocked in 3% nonfat milk and incubated with primary antibodies overnight. Primary antibodies include pFAK, FAK, αSMA, Calponin, pERK, ERK, and GAPDH. Membranes were washed with Tris-Buffered Saline+0.05% Tween-20 and incubated with HRP-conjugated IgG secondary antibodies (Santa Cruz Biotechnologies) for one hour. Protein bands were visualized using Western Lightning™ Plus—Enhanced Chemiluminscence Substrate (Perkin Elmer Life & Analytical Sciences) and imaged on a ChemiDoc XRS system (Bio-Rad).

iN cells [1] = experiment: Immunostaining of mature neuronal markers in iN cells; settings: iN cells derived in presence of inhibitor
Description: as §1

iN cells [2] = experiment: Patch-clamp electrophysiology of iN cells; settings: for functionality of derived iN cells: electrophysiological analysis
Description: For functional assessment of the iN cells, patch-clamp electrophysiology analysis was performed. All experiments were conducted at room temperature (22° C.-24° C.). All reagents were purchased from Sigma-Aldrich unless otherwise specified. Whole-cell recording was made from neurons using a patch clamp amplifier (MultiClamp 700B, Axon Instr.) under infrared differential interference contrast optics. Microelectrodes were made from borosilicate glass capillaries, with a resistance of 4-5 MW. For recording action potentials, cells were held at −70 mV in a […]. The intracellular solution for whole-cell recording of EPSPs and action potentials contained (in mM) 140 potassium gluconate, 5 KCl, 10 HEPES, 0.2 EGTA, 2 MgCl2, 4 MgATP, 0.3 Na2GTP and 10 Na2-phosphocreatine, pH 7.2 (adjusted with KOH).
For recording spontaneous EPSCs (sEPSCs), cells were pre-treated with the extracellular bath solution containing 50 μM picrotoxin (Tocris) to exclude an inhibitory synaptic activity and held at −70 mV in a voltage-clamp mode with the intracellular solution containing (in mM) 130 CsMeSO4, 7 CsCl, 10 HEPES, 1 EGTA, 4 MgATP, 0.3 Na2GTP, and 10 Na2-phosphocreatine, pH 7.3 (adjusted with CsOH). After recording basal sEPSC responses for 5 min, 10 μM CNQX (Tocris) and 100 μM D,L-APV (Tocris) were co-treated to test whether sEPSCs were mediated by activation of both AMPA- and NMDA-type of glutamate receptors. For measuring spontaneous IPSC (sIPSCs), cells were pre-treated with the bath solution containing 10 μM CNQX and 100 μM D,L-APV and held at −70 mV with the intracellular solution containing (in mM) 137 CsCl, 10 HEPES, 1 EGTA, 4 MgATP, 0.3 Na2GTP, and 10 Na2-phosphocreatine, pH 7.3 (adjusted with CsOH). 50 μM picrotoxin was then treated to test a dependency of sIPSCs on GABA receptors after acquiring basal sIPSC responses for 5 min. Series resistance (10-25 MΩ) and input resistance (˜200 MΩ using potassium-based internal solution; 1-2 G2 using Cs-based internal solution) were monitored throughout the whole-cell recording or compared before and after sEPSC/IPSC recordings.
Off-line analyses of action potential properties (number, amplitude, half-width) and the amplitude and frequency of sEPSC and sIPSC were performed by using a threshold event detection function of the Clampfit software (Molecular Devices). Visualization of analysis results and their statistical tests were performed by using GraphPad Prism® 6.0 software.

histone marks = experiment: Immunofluorescence of histone marks in non-transduced fibroblasts; settings: global; 10 μM blebbistatin or 5 μM PF573228, 2 hours, vs control
Description: as §1
Quantification of histone intensity per nuclei was performed using an ImageJ macro. DAPI-stained nuclei were segmented using gaussian blur, thresholding, watershed, and analyze particle functions to identify individual nuclei. This mask was applied to the corresponding stained fluorescence channel to quantify the average fluorescence intensity within each nucleus.

[3] = tested on: DNA methyltransferase (DNMT); experiment: DNMT activity assay on nuclear extracts of treated fibroblasts; settings: 10 μM blebbistatin or 5 μM PF573228, 2 hours, vs DMSO
Description: (§2) Nuclear protein extractions were isolated from 5×10^5 fibroblasts treated with vehicle control (DMSO), 10 μM blebbistatin or 5 μM PF573228 for 2 hours using a nuclear extraction kit (EpiGentek, OP-0002), in accordance with the manufacturer's instructions. HAT, HDAC, H3K4 HMT, H3K4 HDM and DNMT activity were measured using the HAT activity/inhibition assay (EpiGentek, P-4003-048), HDAC activity/inhibition assay (EpiGentek, P-4034-096), Histone methyltransferase (H3K4 specific) activity/inhibition assay (EpiGentek, P-3002-1), Histone Demethylase (H3K4 specific) activity/inhibition assay (EpiGentek, P-3074-48), and DNMT activity/inhibition assay (EpiGentek, P-3009-048), respectively. Per the manufacturer's instructions, 20 μg of nuclear extract was added into the assay wells and incubated at 37° C. for 90 minutes. After adding the color developer solution, the absorbance was measured using a plate reader (Infinite […], 30050303) at 450 nm for all the assays with the exception of the Histone Demethylase (H3K4 specific) activity/inhibition assay where we measured the fluorescence using a fluorescence microplate reader at 530 EX/590 EM nm.

[4] = tested on: H3K4-specific histone demethylase (HDM); experiment: H3K4 HDM activity assay on nuclear extracts of treated fibroblasts; settings: 10 μM blebbistatin or 5 μM PF573228, 2 hours, vs DMSO
Description: as §2

[5] = absence vs presence of blebbistatin

H3K4-specific HDM activity [4] | SMILES | calponin and αSMA expression in BAM-transduced fibroblasts (calponin and αSMA; treated for 2 days) | mature neuronal marker expression of derived iN cells (iN cells [1]) | functionality of derived iN cells (iN cells [2]) | euchromatin marks (AcH3, H3K4me3, H3K4me1) (histone marks) | heterochromatin marks (H3K27me3, H3K9me3) (histone marks) | DNMT activity [3] | calponin- and αSMA-positive cells (calponin and αSMA; non-transduced fibroblasts) | calponin and αSMA expression, gene and protein level (calponin and αSMA; non-transduced fibroblasts, day 3) | Eln and DCN expression (calponin and αSMA; qRT-PCR, non- and BAM-transduced fibroblasts) | frequency of spontaneous EPSCs (iN cells [2]; [5]) | frequency of spontaneous IPSCs (iN cells [2]; [5]) | IPSC amplitude (iN cells [2]; blebbistatin-derived iN cells) | EPSC amplitude (iN cells [2]; iN cells derived with blebbistatin) | action potential properties (iN cells [2]; iN cells generated in absence vs presence of blebbistatin)
differences | CS(=O)(=O)c1cccc(CNc2nc(Nc3ccc4c(c3)CCC(=O)N4)ncc2C(F)(F)F)c1 [PF573228] | decreased | expressed neuronal markers, including NeuN, MAP2, and synapsin; also recorded: displaying a typical neuronal morphology and co-expressing mature neuronal markers, NeuN, MAP2 and synapsin | exhibited functional neuronal properties as assessed by electrophysiological analysis | global increases in AcH3, H3K3me3 and H3K4me1 marks | a concurrent decrease in H3K9me3 and H3K27me3 | a reduction in 5-mC marks and DNMT activity | – | – | – | – | – | – | – | –
reduced | Cc1ccc2c(c1)C(=O)C1(O)CCN(c3ccccc3)C1=N2 (stereo not drawn) [blebbistatin] | – | expressed NeuN, microtubule-associated protein 2 (MAP2), and synapsin | functional, exhibiting spontaneous changes in membrane potential in response to current injection | an increase in AcH3, H3K4me3, and H3K4me1 marks | decreased | a decrease in DNA methyltransferase (DNMT) activity | less calponin and α-smooth muscle actin (SMA)-positive cells | decreased at the gene and protein level by day 3 | downregulated the expression of other mesenchymal and fibroblast-associated genes, Eln and DCN | no significant difference | no significant difference | significantly lower | significantly higher | no apparent difference
